“And” between values parts separate entries of the source, which are not always exact repeats. Identical values can stand only once. Like-named read-outs stand apart in the source and are kept apart here.
Columns and labels:
[1] = Repeated oral administration, tissue concentrations in mice; format: in vivo, Female Fox Chase SCID CB17 Mice
Experimental: In this experiment, mice from all groups were first injected with pentamidine via the IV route on Day 1 (5 mg/kg). Tissue concentrations were assessed 24 hours later (on Day 2), and weekly thereafter (Day 7 and 14) with no subsequent pentamidine administration. Starting on Day 2, groups 2 and 3 were given pentamidine once a day (QD) or twice a day (BID) respectively and tissue levels were measured 24 hours later (Day 3) and weekly thereafter for two weeks.

[2] = Repeat dose oral capsule or intravenous infusion, tissue concentrations and ratios; format: in vivo, Male Beagle Dogs; details: Beagle dogs; for Kp / Tmax / AUC(0-t) / Cmax: male, dog
Experimental: Pharmacokinetics Study in Male Beagle Dogs. Three oral formulations were tested.
In this example, the pharmacokinetics and biodistribution are studied in Male Beagle Dogs. The Dog is a relevant model since the elimination rate from the different organs, mainly the liver, are closer to that observed in man. Three oral formulations were tested and compared to the injectable formulation: […]
The test item dosing formulation was administered once daily as a 2-hour intravenous infusion via the saphenous and/or cephalic vein using an infusion pump, using a temporary peripheral vein catheter attached to a syringe, for 2 consecutive days. The dose volume was 4 mL/kg and the infusion rate was 2 mL/kg/hour for all animals. The actual volume administered to each animal was calculated and adjusted based on the most recent practical body weight of each animal. The catheter was flushed with 0.9% Sodium Chloride for Injection, USP (saline) in order to ensure that the whole intended dose was administered to the animals, after which the temporary catheter was removed and discarded.
The test item was administered twice daily (targeted time: 12 hours apart) by oral capsule administration for 3 consecutive days to fasted animals (at least 4 hours prior to dosing). Food was returned 2 hours post-dose.
The number of capsules to be administered to each animal was fixed to 2 capsules/animals/occasion. If needed, following dosing, the oral cavity was rinsed with an appropriate volume of reverse osmosis water to facilitate swallowing. The oral cavity was inspected following dosing to ensure that the capsules have been swallowed.
The following tables present the different Pharmacokinetic parameters for IV and PO groups, the concentrations of pentamidine in different tissues and the tissue to blood and tissue to liver concentration ratios.

[3] = mice, PO 50 mg/kg
[4] = in vivo; details: male, Beagle, dog, liver, iv, 4 mg/kg/day
[5] = IV 5 mg/kg Day 1, then PO QD or BID
[6] = intravenous dosing, individual animals 1001-1006 and Mean
[7] = summary (group mean), Group 1 IV, Groups 2-4 oral capsules

N=C(N)c1ccc(OCCCCCOc2ccc(C(=N)N)cc2)cc1 [pentamidine, pentamidine bis(2-hydroxyethanesulfonate)]
Kidney levels, effect of oral administration [1, 5]: not affected by oral administration | liver concentrations under oral administration regimen [1, 5]: can be maintained to a desired concentration | Kidneys, lung and muscle concentrations, difference between groups with or without PO ([1]; IV 5 mg/kg Day 1, then none, PO QD or PO BID): no significant difference between groups | Liver AUClast ([2]; IV dosing, Day 1): 27072 µM·h | Liver Cmax ([2]; IV dosing, Day 1): 210 µM | Lung AUClast ([2]; IV dosing, Day 1): 1807.2 µM·h | Lung Cmax ([2]; IV dosing, Day 1): 13.4 µM | Tissue-to-Liver Lung, based on AUC ([2]; IV, *Based on AUC): 6.67* % | Tissue-to-Liver Muscle, based on AUC ([2]; IV, *Based on AUC): 2.9* % | Tissue-to-Liver Skin, based on AUC ([2]; IV, *Based on AUC): 0.87* % | Concentration Blood [2, 6]: 0.16 μmol/L and 0.07 μmol/L and 0.08 μmol/L (2×) and 0.121 μmol/L and 0.25 μmol/L | Concentration Brain [2, 6]: 0.80 μmol/L (3×) and 0.70 μmol/L and 0.90 μmol/L and 0.50 μmol/L | Concentration Heart [2, 6]: 22.30 µM and 13.90 µM and 15.80 µM and 20.20 µM and 10.10 µM and 14.20 µM | Concentration Kidney [2, 6]: 53.10 µM and 38.30 µM and 48.70 µM and 55.80 µM and 44.80 µM and 39.70 µM | Concentration Liver [2, 6]: 208 µM and 174 µM and 168 µM and 210 µM and 125 µM and 159 µM | Concentration Lung [2, 6]: 11.56 µM and 11.52 µM and 13.39 µM and 10.48 µM and 9.80 µM and 11.80 µM | Concentration Muscle [2, 6]: 5.28 µM and 4.98 µM and 5.29 µM and 6.11 µM and 2.82 µM and 5.56 µM | Concentration Pancreas [2, 6]: 8.50 µM and 6.00 µM and 8.00 µM and 8.20 µM and 4.60 µM and 7.10 µM | Concentration Skin [2, 6]: 1.45 μmol/L and 1.23 μmol/L and 1.41 μmol/L and 1.80 μmol/L and 1.63 μmol/L (2×) | Tissue-to-Liver Brain [2, 7]: 0.46% | Tissue-to-Liver Heart [2, 7]: 9.66% | Tissue-to-Liver Kidney [2, 7]: 28.4% | Tissue-to-Liver Lung [2, 7]: 6.74% | Tissue-to-Liver Muscle [2, 7]: 2.9% | Tissue-to-Liver Pancreas [2, 7]: 4.34% | Tissue-to-Liver Skin [2, 7]: 0.91% | Kp ([2]; Beagle, brain/blood, intravenous, summary (group mean), Group 1 IV, Groups 2-4 oral capsules, read-out: Tissue-to-blood ratio Brain): 6.19 | Kp ([2]; Beagle, heart/blood, intravenous, summary (group mean), Group 1 IV, Groups 2-4 oral capsules, read-out: Tissue-to-blood ratio Heart): 133 | Kp ([2]; Beagle, kidney/blood, intravenous, summary (group mean), Group 1 IV, Groups 2-4 oral capsules, read-out: Tissue-to-blood ratio Kidney): 386 | Kp ([2]; Beagle, liver/blood, intravenous, summary (group mean), Group 1 IV, Groups 2-4 oral capsules, read-out: Tissue-to-blood ratio Liver): 1690 | Kp ([2]; Beagle, liver/blood, iv, 4 mg/kg/day, IV, *Based on AUC, read-out: Tissue-to-blood ratio Liver, based on AUC): 922 | Kp ([2]; Beagle, lung/blood, intravenous, summary (group mean), Group 1 IV, Groups 2-4 oral capsules, read-out: Tissue-to-blood ratio Lung): 111 | Kp ([2]; Beagle, lung/blood, iv, 4 mg/kg/day, IV, *Based on AUC, read-out: Tissue-to-blood ratio Lung, based on AUC): 61.6 | Kp ([2]; Beagle, muscle/blood, intravenous, summary (group mean), Group 1 IV, Groups 2-4 oral capsules, read-out: Tissue-to-blood ratio Muscle): 48.7 | Kp ([2]; Beagle, muscle/blood, iv, 4 mg/kg/day, IV, *Based on AUC, read-out: Tissue-to-blood ratio Muscle, based on AUC): 8.01 | Kp ([2]; Beagle, pancreas/blood, intravenous, summary (group mean), Group 1 IV, Groups 2-4 oral capsules, read-out: Tissue-to-blood ratio Pancreas): 58.4 | Kp ([2]; Beagle, skin/blood, intravenous, summary (group mean), Group 1 IV, Groups 2-4 oral capsules, read-out: Tissue-to-blood ratio Skin): 14.4 | Kp ([2]; Beagle, skin/blood, iv, 4 mg/kg/day, IV, *Based on AUC, read-out: Tissue-to-blood ratio Skin, based on AUC): 26.8 | Kp ([2]; beagle, brain / blood, iv, intravenous dosing, individual animals and mean, read-out: Tissue-to-blood ratio Brain): 4.13 | Kp ([2]; beagle, kidney / blood, iv, intravenous dosing, individual animals and mean, read-out: Tissue-to-blood ratio Kidney): 370 | Kp ([2]; beagle, pancreas / blood, iv, intravenous dosing, individual animals and mean, read-out: Tissue-to-blood ratio Pancreas): 38 | Tmax ([2]; liver, 4 mg/kg/day, IV dosing, Day 1, read-out: Liver Tmax): 168 h | Tmax ([2]; lung, 4 mg/kg/day, IV dosing, Day 1, read-out: Lung Tmax): 120 h | AUC(0-t) ([2]; muscle, 4 mg/kg/day, IV dosing, Day 1, read-out: Muscle AUClast): 786 µM·h | Cmax ([2]; muscle, 4 mg/kg/day, IV dosing, Day 1, read-out: Muscle Cmax): 6.1 µM | Tmax ([2]; muscle, 4 mg/kg/day, IV dosing, Day 1, read-out: Muscle Tmax): 168 h | AUC(0-t) ([2]; skin, 4 mg/kg/day, IV dosing, Day 1, read-out: Skin AUClast): 235 µM·h | Cmax ([2]; skin, 4 mg/kg/day, IV dosing, Day 1, read-out: Skin Cmax): 1.8 µM | Tmax ([2]; skin, 4 mg/kg/day, IV dosing, Day 1, read-out: Skin Tmax): 168 h | Liver and kidney levels after PO administration versus blood [3]: several folds that of blood | muscle concentration after PO administration versus blood [3]: several folds the concentration found in blood | half-life [4]: ~672 h

From US9375411B2, “Uses and methods for the treatment of liver diseases or conditions” (Verlyx Pharma Inc., priority 2012, dated 2016)
